This series has as its system ADJ/PC6 tumour. Description: Antitumour activity against the ADJ/PC6 tumour in mice, intraperitoneal route (LD50, ED90, T.I.). In kind it is in vivo. Conditions: for ED90: Table 1, ADJ/PC6 tumour in mice; for LD50: Table 1, mice. The procedure:
The invention will now be described by way of example only. A selection of compounds according to the invention were prepared by the above-described method, and were characterised by elemental analysis and infra red spectroscopy. The compounds were compared against known compounds and against each other for activity against the ADJ/PC6 tumour in mice, when given by the intraperitoneal route and the results are tabulated below.

A word on the LD50: it is the dose at which mortality reaches 50%. The low end stands for a more toxic substance, the high end for a less toxic substance. The compound `N.N.[Cl][Pt]([Cl])([Cl])[Cl]` [Comparison A] had an ED90 of 3.4 mg/kg and an LD50 of 18 mg/kg.
The matching figures for `NC1CCCCC1.NC1CCCCC1.[Cl][Pt]([Cl])([Cl])[Cl]` [Comparison B]: 10 mg/kg and 190 mg/kg.

These data come from patent EP0333351A2, “Platinum coordination compounds” (JOHNSON MATTHEY PUBLIC LIMITED COMPANY, priority 1988, dated 1989).
